Assay results as given in patent US20060058374A1, “Urotensin II receptor agents” (priority 2002, published 2006).

What was measured:
Acetylcholine m1 = target: T1, Acetylcholine m1 (Homo sapiens, UniProt P11229); assay: R-SAT assay, Acetylcholine m1; type: cell-based
T1 construct: expressed in transfected cells; host or cells: NIH3T3
Experimental: (§1) The test compound of Formula III was screened according to a modification of the method described in U.S. Pat. No. 5,912,312. The method, herein referred to as Method 1, consists of the following:
(§2) Receptor Selection and Amplification (R-SAT) Assays.
(§3) R-SAT assays were performed with minor modifications from that previously described (6). Briefly, NIH3T3 cells were grown in tissue culture treated rollerbottles to 40-50% confluence. Cells were transfected for 12-16 hours with plasmid DNAs using superfect (Qiagen Inc.) as per manufacture's protocols. R-SAT's were generally performed with 10 μg/rollerbottle of receptor and 50 μg/rollerbottle of Beta-galactosidase plasmid DNA. All receptor and G-protein constructs used were in the PSI mammalian expression vector (Promega Inc.). The transfected cells were then trypsinized and frozen in DMEM containing 10% DMSO. Frozen cells were later thawed, plated at 10,000-40,000 cells per well of a 96 ½ area plate that contained drug. […] Media was then removed from the plates and marker gene activity was measured by the addition of the beta-galactosidase substrate ONPG (in PBS with 5% NP-40). The resulting colorimetric reaction was measured in a spectrophotometric plate reader (Titertek Inc.) at […].
(§4) EC50, IC50 and Ki are presented as the negative of the calculated potency in Molar.

CRF2b = target: T2, CRF2b (Homo sapiens, UniProt Q13324); assay: R-SAT assay, CRF2b; type: cell-based; details: percent maximal activation relative to control compound
T2 construct: expressed in transfected cells; host or cells: NIH3T3
T2 sequence (Q13324 1-438 isoform Q13324-2): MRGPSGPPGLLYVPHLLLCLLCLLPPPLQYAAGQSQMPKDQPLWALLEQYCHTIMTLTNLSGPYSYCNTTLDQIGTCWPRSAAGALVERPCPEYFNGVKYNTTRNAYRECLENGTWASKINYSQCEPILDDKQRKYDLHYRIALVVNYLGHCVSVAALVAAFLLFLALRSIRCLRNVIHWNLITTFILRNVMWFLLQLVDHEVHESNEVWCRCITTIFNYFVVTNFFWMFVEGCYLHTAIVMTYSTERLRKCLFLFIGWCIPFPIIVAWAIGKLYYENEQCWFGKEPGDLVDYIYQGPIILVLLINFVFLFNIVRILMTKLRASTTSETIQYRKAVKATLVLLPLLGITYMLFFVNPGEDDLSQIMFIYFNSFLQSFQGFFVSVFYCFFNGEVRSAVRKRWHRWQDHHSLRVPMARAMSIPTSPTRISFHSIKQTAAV
Experimental: as §1, §2, §3, §4

Serotonin 5HT2c = target: T3, Serotonin 5HT2c (Homo sapiens, UniProt P28335); assay: R-SAT assay, Serotonin 5HT2c; type: cell-based; details: inverse agonist mode; percent maximal inhibition relative to repression of basal activity by a control standard compound
T3 construct: expressed in transfected cells; host or cells: NIH3T3
T3 sequence (P28335 33-458): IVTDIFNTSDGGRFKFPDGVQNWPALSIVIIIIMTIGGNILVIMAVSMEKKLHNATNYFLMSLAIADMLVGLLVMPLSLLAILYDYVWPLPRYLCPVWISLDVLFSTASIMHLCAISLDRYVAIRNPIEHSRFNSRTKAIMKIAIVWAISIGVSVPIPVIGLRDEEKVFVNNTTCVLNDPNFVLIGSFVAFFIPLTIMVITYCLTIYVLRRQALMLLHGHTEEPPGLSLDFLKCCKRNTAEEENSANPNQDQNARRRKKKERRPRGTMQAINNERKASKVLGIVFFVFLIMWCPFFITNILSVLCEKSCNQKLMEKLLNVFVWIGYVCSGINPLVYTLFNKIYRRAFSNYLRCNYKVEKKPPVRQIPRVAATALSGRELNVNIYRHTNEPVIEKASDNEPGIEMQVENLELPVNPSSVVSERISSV
Experimental: as §1, §2, §3, §4

CRF2a = target: T4, CRF2a (Homo sapiens, UniProt Q13324); assay: R-SAT assay, CRF2a; type: cell-based; details: percent maximal activation relative to control compound
T4 construct: expressed in transfected cells; host or cells: NIH3T3
T4 sequence (Q13324 whole entry): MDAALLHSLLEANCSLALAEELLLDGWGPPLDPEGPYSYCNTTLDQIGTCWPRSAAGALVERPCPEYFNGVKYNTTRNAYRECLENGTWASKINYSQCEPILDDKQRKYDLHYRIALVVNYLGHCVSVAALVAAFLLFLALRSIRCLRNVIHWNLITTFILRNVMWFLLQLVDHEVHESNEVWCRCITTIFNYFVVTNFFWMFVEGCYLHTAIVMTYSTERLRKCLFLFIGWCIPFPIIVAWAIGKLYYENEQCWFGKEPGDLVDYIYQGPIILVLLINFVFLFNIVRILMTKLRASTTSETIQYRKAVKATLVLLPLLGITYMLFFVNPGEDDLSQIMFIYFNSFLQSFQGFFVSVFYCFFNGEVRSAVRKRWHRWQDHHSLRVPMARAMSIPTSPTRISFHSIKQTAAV
Experimental: as §1, §2, §3, §4

SST5 = target: T5, SST5 (Homo sapiens, UniProt P35346); assay: R-SAT assay, SST5; type: cell-based; details: percent maximal activation relative to control compound
T5 construct: expressed in transfected cells; host or cells: NIH3T3
T5 sequence (P35346 whole entry, species assumed): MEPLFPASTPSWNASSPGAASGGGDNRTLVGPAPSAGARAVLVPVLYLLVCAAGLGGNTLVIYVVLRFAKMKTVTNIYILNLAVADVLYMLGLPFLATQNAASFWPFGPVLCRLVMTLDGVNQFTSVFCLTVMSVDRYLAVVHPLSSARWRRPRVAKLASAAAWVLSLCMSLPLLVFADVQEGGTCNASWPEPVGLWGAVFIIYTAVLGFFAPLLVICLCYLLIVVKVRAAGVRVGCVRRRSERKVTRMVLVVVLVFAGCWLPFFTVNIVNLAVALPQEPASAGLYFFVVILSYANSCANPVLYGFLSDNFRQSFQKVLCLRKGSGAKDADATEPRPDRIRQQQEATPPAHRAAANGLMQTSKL
Experimental: as §1, §2, §3, §4

Histamine H1 = target: T6, Histamine H1 (Homo sapiens, UniProt P35367); assay: R-SAT assay, Histamine H1; type: cell-based; details: competitive antagonist mode; percent maximal inhibition relative to control standard compound
T6 construct: expressed in transfected cells; host or cells: NIH3T3 cells, receptor plasmid in PSI mammalian expression vector (Promega)
T6 sequence (P35367 whole entry): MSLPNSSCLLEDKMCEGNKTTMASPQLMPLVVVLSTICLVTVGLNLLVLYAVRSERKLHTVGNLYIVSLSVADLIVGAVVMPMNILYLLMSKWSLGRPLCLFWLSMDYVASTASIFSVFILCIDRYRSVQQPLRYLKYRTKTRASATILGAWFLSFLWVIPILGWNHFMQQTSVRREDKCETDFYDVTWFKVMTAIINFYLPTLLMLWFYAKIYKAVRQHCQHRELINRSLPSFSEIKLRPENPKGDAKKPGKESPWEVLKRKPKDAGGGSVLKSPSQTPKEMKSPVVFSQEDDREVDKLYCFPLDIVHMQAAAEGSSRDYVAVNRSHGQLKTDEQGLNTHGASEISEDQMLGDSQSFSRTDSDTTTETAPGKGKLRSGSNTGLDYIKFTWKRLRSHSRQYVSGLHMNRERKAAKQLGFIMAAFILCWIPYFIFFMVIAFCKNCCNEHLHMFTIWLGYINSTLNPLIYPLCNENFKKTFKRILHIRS
Experimental: as §1, §2, §3, §4

Serotonin 5HT2b = target: T7, Serotonin 5HT2b (Homo sapiens, UniProt P41595); assay: R-SAT assay, Serotonin 5HT2b; type: cell-based
T7 construct: expressed in transfected cells; host or cells: NIH3T3
T7 sequence (P41595 whole entry): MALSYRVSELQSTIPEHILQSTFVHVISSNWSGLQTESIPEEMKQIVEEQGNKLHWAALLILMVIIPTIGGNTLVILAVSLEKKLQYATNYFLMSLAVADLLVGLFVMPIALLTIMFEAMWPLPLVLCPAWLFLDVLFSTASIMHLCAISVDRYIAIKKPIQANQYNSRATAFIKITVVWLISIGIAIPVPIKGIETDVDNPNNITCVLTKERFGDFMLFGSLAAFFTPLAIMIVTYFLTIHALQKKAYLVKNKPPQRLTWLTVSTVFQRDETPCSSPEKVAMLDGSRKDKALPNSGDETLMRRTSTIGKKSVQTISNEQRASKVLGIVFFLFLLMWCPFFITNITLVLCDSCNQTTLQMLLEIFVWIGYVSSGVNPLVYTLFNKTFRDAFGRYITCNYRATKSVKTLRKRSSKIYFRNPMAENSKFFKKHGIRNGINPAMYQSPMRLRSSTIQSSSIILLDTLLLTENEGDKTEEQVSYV
Experimental: as §1, §2
R-SAT assays were performed with minor modifications from that previously described (6). Briefly, NIH3T3 cells were grown in tissue culture treated rollerbottles to 40-50% confluence. Cells were transfected for 12-16 hours with plasmid DNAs using superfect (Qiagen Inc.) as per manufacture's protocols. R-SAT's were generally performed with 10 μg/rollerbottle of receptor and 50 μg/rollerbottle of Beta-galactosidase plasmid DNA. All receptor and G-protein constructs used were in the PSI mammalian expression vector (Promega Inc.). The transfected cells were then trypsinized and frozen in DMEM containing 10% DMSO. Frozen cells were later thawed, plated at 10,000-40,000 cells per well of a 96 ½ area plate that contained drug. Cells were then grown in a humidified atmosphere with 5% ambient CO2 for five days. Media was then removed from the plates and marker gene activity was measured by the addition of the beta-galactosidase substrate ONPG (in PBS with 5% NP-40). The resulting colorimetric reaction was measured in a spectrophotometric plate reader (Titertek Inc.) at […].
as §4

male NSA mice = assay: Locomotor activity in mice after i.v. injection; type: in vivo
Experimental: The test compound of Formula III was tested at 10 mg/kg, i.v. in male NSA mice. Locomotor activity was measured for 15 min following injection. The locomotor activity was decreased relative to sham injected animals. Within a few minutes into the session, the mice sat quietly in a corner of the chamber in a normal posture.
Following the initial experiment, a dose-response curves using 1, 3, and 10 mg/kg, i.v. were conducted. The effects of 10 mg/kg the test compound of Formula III were replicated.

k opioid = target: T8, k opioid (Homo sapiens, UniProt P41145); assay: R-SAT assay, k opioid; type: cell-based; details: percent maximal activation relative to control compound
T8 construct: expressed in transfected cells; host or cells: NIH3T3
T8 sequence (P41145 whole entry): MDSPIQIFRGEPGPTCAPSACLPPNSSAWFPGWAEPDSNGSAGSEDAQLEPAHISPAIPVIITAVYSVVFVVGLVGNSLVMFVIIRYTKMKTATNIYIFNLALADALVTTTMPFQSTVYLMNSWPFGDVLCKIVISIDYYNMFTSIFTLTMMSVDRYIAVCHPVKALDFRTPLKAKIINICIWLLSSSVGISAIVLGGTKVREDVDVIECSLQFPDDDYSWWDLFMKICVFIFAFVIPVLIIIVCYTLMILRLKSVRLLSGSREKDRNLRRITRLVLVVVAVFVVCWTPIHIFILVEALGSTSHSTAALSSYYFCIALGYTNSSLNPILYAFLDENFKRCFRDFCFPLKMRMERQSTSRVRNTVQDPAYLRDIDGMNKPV
Experimental: as §1, §2, §3, §4

[1] = competitive antagonist mode, percent maximal inhibition relative to control standard compound
[2] = percent maximal activation relative to control compound

T1 sequence (P11229 whole entry): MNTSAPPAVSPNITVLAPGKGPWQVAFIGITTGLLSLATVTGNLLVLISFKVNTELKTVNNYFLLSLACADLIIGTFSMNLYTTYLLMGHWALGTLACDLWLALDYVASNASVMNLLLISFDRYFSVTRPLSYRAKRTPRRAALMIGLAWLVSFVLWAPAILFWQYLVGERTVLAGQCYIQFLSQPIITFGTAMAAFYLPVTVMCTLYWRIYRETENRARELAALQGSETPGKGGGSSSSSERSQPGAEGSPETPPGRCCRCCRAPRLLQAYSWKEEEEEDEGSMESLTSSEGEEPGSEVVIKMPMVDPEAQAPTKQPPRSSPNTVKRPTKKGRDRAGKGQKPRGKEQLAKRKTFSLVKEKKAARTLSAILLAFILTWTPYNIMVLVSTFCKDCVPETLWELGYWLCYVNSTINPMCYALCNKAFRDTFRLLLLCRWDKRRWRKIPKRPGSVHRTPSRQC

CN(C)CCC1(c2ccc(Cl)cc2)Cc2ccccc2C(=O)O1 (centres unmarked) [Formula III]
Competitive Antagonist % Inh (Acetylcholine m1; [1]): 13%
Agonist % Eff (Acetylcholine m1; [2]): 3%
Agonist % Eff (CRF2b): 0%
Inverse Agonist % Inh (Serotonin 5HT2c): 0%
Agonist % Eff (CRF2a): 0%
Agonist % Eff (SST5): 0%
Competitive Antagonist % Inh (Histamine H1): 0%
Competitive Antagonist % Inh (Serotonin 5HT2b; [1]): 0%
Inverse Agonist % Inh (Serotonin 5HT2b; inverse agonist mode, percent maximal inhibition relative to repression of basal activity by a control standard compound): 0%
Agonist % Eff (Serotonin 5HT2b; [2]): 0%
locomotor activity (male NSA mice; 10 mg/kg i.v., male NSA mice, 15 min following injection, relative to sham injected animals): decreased
behavioural observation (responsiveness, appearance) (male NSA mice; 10 mg/kg i.v., male NSA mice, during the session): responsive to sound and touch and otherwise appeared normal
effects on locomotor activity in dose-response experiment (male NSA mice; dose-response 1, 3 and 10 mg/kg i.v., result stated for 10 mg/kg): replicated
Agonist % Eff (k opioid): 0%
